{
  "source": "patent US5436137A",
  "about": "“DNA sequence which encodes a peptide capable of promoting acrosome reaction” (Oregon Regional Primate Research Center, priority 1993, dated 1995)",
  "key": {"[1]": {"tested_on": "human sperm", "assay": "acrosome reaction in capacitated human sperm (acrosome specific monoclonal antibody, FITC fluorescence)", "assay_type": "cell-based", "conditions": "bombesin at a concentration as low as 5 nM, added after overnight capacitation, FIG. 5", "protocol": "(§1) To measure the effects of bombesin on the acrosome reaction, capacitation was conducted in the presence or absence of bombesin. After incubation, samples of sperm were removed to determine the percentage of sperm which had undergone the acrosome reaction as measured with an acrosome specific monoclonal antibody and FITC fluorescence [see Wolf, D. P. Am. J. Reprod. Immunol. 20:106-113 (1989), which is hereby incorporated by reference].\nFor human sperm, capacitation was achieved by overnight incubation of sperm in balanced salt and 0.3% bovine serum albumin, after which bombesin was added to induce the acrosome reaction."}, "[2]": {"tested_on": "monkey sperm", "assay": "acrosome reaction in capacitated monkey sperm (acrosome specific monoclonal antibody, FITC fluorescence)", "assay_type": "cell-based", "conditions": "bombesin at a concentration as low as 5 nM, present during 60 minutes capacitation, FIG. 5", "protocol": "For monkeys, sperm was collected, washed twice in balanced salts, resuspended in lactate/bicarbonate and dibutyryl cAMP, and then incubated for 60 minutes. […] See Wolf, D. P. et al. Mol. Reprod. Dev. 27:261-280 (1990); Lanzendorf, S. E. et al. Mol. Reprod. Dev. 25:61-66 (1990); and Wolf D. P. et al. Biol. Reprod. 41:335-346 (1989). All of these three publications are hereby incorporated by reference.\nas §1"}},
  "data": [
    {"molecule": "CSCC[C@H](NC(=O)[C@H](CC(C)C)NC(=O)[C@H](Cc1cnc[nH]1)NC(=O)CNC(=O)[C@@H](NC(=O)[C@H](C)NC(=O)[C@H](Cc1c[nH]c2ccccc12)NC(=O)[C@H](CCC(N)=O)NC(=O)[C@H](CC(N)=O)NC(=O)CNC(=O)[C@H](CC(C)C)NC(=O)[C@H](CCCN=C(N)N)NC(=O)[C@H](CCC(N)=O)NC(=O)[C@@H]1CCC(=O)N1)C(C)C)C(N)=O", "note": "[bombesin]", "values": [
      {"measurement": "increase in the acrosome reaction", "setting": "[1]", "result": 2, "unit": "fold"},
      {"measurement": "increase in the acrosome reaction", "setting": "[2]", "result": 2, "unit": "fold"}
    ]}
  ]
}
